Data set [1] relates to CHO. As to the kind of experiment: Cytotoxicity against CHO cells measured after 48 hrs by MTT assay. It is filed as cell-based. Particulars: Cricetulus griseus.
The subject of data set [2] is Plasmodium falciparum. As to the kind of experiment: Antiplasmodial activity against chloroquine-sensitive asexual blood stage of Plasmodium falciparum NF54 by LDH assay. The format is functional, organism-based.
Data set [3] relates to Plasmodium falciparum. Nature of the data set: Antiplasmodial activity against chloroquine-resistant asexual blood stage of Plasmodium falciparum K1 by LDH assay. The format is functional, organism-based.
Data set [4] in a line: Resistance index, ratio of IC50 for chloroquine-resistant asexual blood stage of Plasmodium falciparum K1 to IC50 for chloroquine-sensitive asexual blood stage of Plasmodium falciparum NF54. It is filed as functional.
Data set [5] is described as follows: Selectivity index, ratio of IC50 for CHO cells to IC50 for chloroquine-sensitive asexual blood stage of Plasmodium falciparum NF54. As to conditions: hamster, read-out: Ratio IC50. The format is toxicity.
The nature of data set [6]: Selectivity index, ratio of IC50 for CHO cells to IC50 for chloroquine-resistant asexual blood stage of Plasmodium falciparum K1. It is filed as toxicity. As to conditions: hamster, read-out: Ratio IC50.
Data set [7] deals with Hemozoin. As to the kind of experiment: Inhibition of beta-hematin formation assessed as reduction in hemozoin formation incubated for 16 hrs by NP40 detergent-mediated assay.
The subject of data set [8] is Hemozoin. Nature of the data set: Potency index, ratio of chloroquine IC50 to compound IC50 for inhibition of beta-hematin assessed as hemozoin formation.
Data set [9] concerns Plasmodium berghei. Nature of the data set: Antimalarial activity against GFP-transfected Plasmodium berghei ANKA infected mouse assessed as reduction in parasitemia at 50 mg/kg, po consecutively at 4, 24, 48 and 72 hrs post infection by flow cytometry relative to control. The format is functional. A general note: A flow cytometer gives signals particle by particle.
Data set [10] concerns Plasmodium berghei. Nature of the data set: Antimalarial activity against GFP-transfected Plasmodium berghei ANKA infected in mouse assessed as mean survival days at 50 mg/kg, po administered consecutively at 4, 24, 48 and 72 hrs post infection. It is filed as functional.
Data set [11] relates to Mycobacterium tuberculosis. Nature of the data set: Antimycobacterial activity against Mycobacterium tuberculosis H37Rv after 14 days in presence of middlebrook 7H9/ADC medium by broth microdilution method. Particulars: 336 h. The format is functional. On the technique in general: Broth dilution looks for growth in wells or tubes with falling amounts of substance.
Data set [12] has as its system Mycobacterium tuberculosis. Nature of the data set: Antimycobacterial activity against Mycobacterium tuberculosis H37Rv after 14 days in presence of middlebrook 7H9/CAS medium by broth microdilution method. It is filed as functional. As to conditions: 336 h.
In data set [13] the test system is Mycobacterium tuberculosis. As to the kind of experiment: Antimycobacterial activity against Mycobacterium tuberculosis H37Rv after 7 days in presence of middlebrook 7H9/ADC medium by microplate alamar blue assay. It is filed as functional. As to conditions: 168 h. In general terms: Alamar Blue is a resazurin reagent that responds to reducing activity.
The test system of data set [14] is Mycobacterium tuberculosis. Nature of the data set: Antimycobacterial activity against Mycobacterium tuberculosis H37Rv after 7 days in presence of middlebrook 7H9/CAS medium by microplate alamar blue assay. The format is functional. As to conditions: 168 h.

SMILES strings stand for the structures.

For the compound `FC(F)(F)c1ccc2c(c1)nc(-c1ccccc1)n2CCCNc1ccnc2cc(Cl)ccc12`, the IC50 (in general, the concentration at which inhibition is half-maximal) was 16200 nM in data set [1], 431 nM in data set [2], 151 nM in [3] and 16000 nM in data set [7]. Also, the figures for the Ratio IC50 in data set [4] and in [8] were 0.35 and 4, respectively. For the same compound, the figures for the selectivity ratio in data set [5] and in data set [6] were 37.5 and 107, respectively. In addition, in data set [9], the inhibition in vivo (commonly the drop in the measured response relative to a control, in per cent) at 50 mg/kg turned out to be 58%. In addition, in data set [10], the MSD amounted to 7 days. Further, the MIC90 – broadly, an inhibitory concentration at the 90% level, which refers to growth in some studies and to a panel of isolates in others – was 62.5 µM in data set [11], 15.6 µM in data set [12], 89.1 µM in data set [13] and 15.8 µM in data set [14].

With `Clc1ccc2c(NCCCn3c(-c4ccccc4)nc4ccccc43)ccnc2c1`, the IC50 in [1] came to 42000 nM; in data set [2], 5550 nM; in data set [3] it was 201 nM. Further, the Ratio IC50 in data set [4] amounted to 0.0362. The selectivity ratio in [5] is 7.57; in data set [6], 209. The MIC90 in data set [11] is 125 µM; in [12], 62.5 µM; in [13] it was 38.8 µM; in data set [14], 50.6 µM.

Consider `Cc1ccc2c(c1)nc(-c1ccccc1)n2CCCNc1ccnc2cc(Cl)ccc12`, for which the IC50 in [1] is more than 50000 nM; in data set [2] it was 784 nM; in [3], 457 nM. Moreover, the Ratio IC50 in data set [4] worked out at 0.583. The MIC90 in data set [11] is 125 µM; in [12], 31.2 µM; in data set [13] it was more than 62.5 µM; in data set [14], 32.7 µM.

Consider `CO[C@H]1/C=C/O[C@@]2(C)Oc3c(C)c(O)c4c(O)c(c(/C=N/N5CCN(C)CC5)c(O)c4c3C2=O)NC(=O)/C(C)=C\C=C\[C@H](C)[C@H](O)[C@@H](C)[C@@H](O)[C@@H](C)[C@H](OC(C)=O)[C@@H]1C` [RIFAMPIN], for which the MIC90 in data set [11] is 0.018 µM; in data set [12] it was 0.018 µM; in data set [13], 0.0156 µM; in data set [14], 0.0217 µM.

Take `CS(=O)(=O)c1ccc2c(c1)nc(-c1ccccc1)n2CCCNc1ccnc2cc(Cl)ccc12`: the half-maximal inhibitory concentration (IC50) in [1] turned out to be 40900 nM; in data set [2] it was 559 nM; in [3], 1830 nM. Also, the Ratio IC50 in data set [4] turned out to be 3.28. Moreover, the selectivity ratio in [5] was 73.2; in data set [6] it was 22.4. In addition, the MIC90 in data set [11] is more than 125 µM; in data set [12], 125 µM; in [13], more than 62.5 µM; in data set [14], more than 125 µM.

With `N#Cc1ccc2c(c1)nc(-c1ccccc1)n2CCCNc1ccnc2cc(Cl)ccc12`, the IC50 turned out to be 38900 nM in [1], 975 nM in data set [2] and 179 nM in data set [3]. Moreover, the Ratio IC50 in data set [4] is 0.183. Further, the selectivity ratio in data set [5] is 39.9; in data set [6] it was 217. The MIC90 in data set [11] was more than 125 µM; in data set [12] it was 62.5 µM; in data set [13] it was more than 62.5 µM; in data set [14] it was more than 125 µM.

Take `CCN(CC)CCCC(C)Nc1ccnc2cc(Cl)ccc12` (centres undefined) [CHLOROQUINE]: the IC50 in data set [7] amounted to 74000 nM.

Consider `CC[C@H]1CN2CCc3cc(OC)c(OC)cc3[C@@H]2C[C@@H]1C[C@H]1NCCc2cc(OC)c(OC)cc21` [EMETINE], for which the midpoint of inhibition in data set [1], the IC50, lay at 16.2 nM.

For `C[C@H]1[C@H](OC(=O)CCC(=O)O)O[C@@H]2O[C@@]3(C)CC[C@H]4[C@H](C)CC[C@@H]1[C@@]24OO3` [ARTESUNATE], in data set [2], the IC50 was 9.8 nM.

Source of the values: ChEMBL document CHEMBL4359849, “Bioisosteric ferrocenyl aminoquinoline-benzimidazole hybrids: Antimicrobial evaluation and mechanistic insights” (Eur J Med Chem, 2019).
